Values joined by “and” are separate entries in the source; they are usually repeats but may differ in a detail not shown here. Identical values can stand only once.
Key:
[1] = tested on: Mouse colon cancer Colon 26; assay: Antitumor effect on mouse colon cancer Colon 26-transplanted mouse; type: in vivo; settings: for Relative tumor volume mean ± SD: 12th day after initiation of administration, day of initiation = 1.0; for suppression of tumor growth (in words) / dose dependence of tumor growth suppression (in words): single administration; for dose dependence of tumor growth suppression (in words): doses of Table 1
Description: Mouse colon cancer Colon 26 cells subcutaneously subcultured in a BALB/c mouse were prepared in the form of a block which measured about 2 mm on each side, and the block was subcutaneously transplanted on the dorsal part of a CDF1 mouse using a trocar. […] The tumor volume on the day of initiation of administration was taken as 1.0, and while taking the 12th day after the initiation of administration as the day of determination, the relative tumor volume of each administered group was determined. The dose in the compounds of the present invention is converted to that of MTX.

[2] = tested on: rat collagen-induced arthritis model; assay: Anti-inflammatory evaluation 2 using rat collagen-induced arthritis model (Test Example 4); type: in vivo; settings: 8th, 15th and 22nd day after sensitization
Description: The test was carried out in the same manner as in Test Example 3. […] The groups administered with 1.00 mg/kg (convert to dose of MTX) and 1.25 mg/kg (convert to dose of MTX) of MTX_G-40, and the group administered with 2.5 mg/kg of MTX were administered with the drug through the tail vein on the 1st day, 8th day, 15th day and 22nd day after sensitization.

[3] = tested on: rat collagen-induced arthritis model; assay: Anti-inflammatory evaluation using rat collagen-induced arthritis model (Test Example 3)
[4] = 15 mg/kg/day tail vein, 5 successive days (total 75 mg/kg)
[5] = once 25 mg/kg in terms of MTX, tail vein
[6] = once 25 mg/kg in terms of MTX, tail vein, 25 mg/kg
[7] = once 50 mg/kg in terms of MTX, tail vein

Molecule: CN(Cc1cnc2nc(N)nc(N)c2n1)c1ccc(C(=O)N[C@@H](CCC(=O)O)C(=O)O)cc1 [MTX, methotrexate, reference compound]
- antitumor effect (in words) ([1]; 15 mg/kg for 5 successive days): an antitumor effect was not observed
- Toxicity (death/n) [1, 4]: 0/3
- Relative tumor volume mean ± SD [1, 4]: 12.2 and 12.2 ± 8.1
- death of toxicity (in words) ([1]; 20 mg/kg for 5 successive days): all of the animals died of toxicity
- Toxicity (death/n) ([1]; 20 mg/kg/day tail vein, 5 successive days (total 100 mg/kg)): 3/3
- anti-inflammatory effect, arthritis score of left footpad (FIG. 3) ([2]; 2.5 mg/kg tail vein on 1st): delayed the time of onset of inflammation as compared with the control group
- anti-inflammatory effect, arthritis score of left footpad (FIG. 2) ([3]; 2.5 mg/kg tail vein on 1st and 8th day after sensitization): no anti-inflammatory effects were observed

Molecule: PEG-Asp40(α-Tyramine-MTX)-Ac [MTX_A-40]
- Toxicity (death/n) [1, 5]: 0/3
- Relative tumor volume mean ± SD [1, 6]: 6.8 and 6.8 ± 0.7
- death of toxicity (in words) ([1]; once 50 mg/kg in terms of MTX): one animal died of toxicity
- Toxicity (death/n) [1, 7]: 1/3
- Relative tumor volume mean ± SD ([1]; once 50 mg/kg in terms of MTX, tail vein, 50 mg/kg): 4.8 and 4.8 ± 2.8
- suppression of tumor growth (in words) [1]: strongly suppress the growth of tumor with a single administration
- dose dependence of tumor growth suppression (in words) [1]: tumor growth is suppressed in a manner dependent on the amount of administration
- anti-inflammatory effect, arthritis score of left footpad (FIG. 2) ([3]; 2.5 mg/kg on 1st day, or 1.25 mg/kg on 1st and 8th day after sensitization, in terms of MTX, tail vein): delayed the time of onset of inflammation

Molecule: PEG-Asp40(γ-Tyramine-MTX)-Ac [MTX_G-40]
- anti-inflammatory effect, arthritis score of left footpad (FIG. 3) ([2]; 1.00 mg/kg (dose of MTX) tail vein on 1st): further delayed the time of onset of inflammation compared to MTX
- anti-inflammatory effect, arthritis score of left footpad (FIG. 3) ([2]; 1.25 mg/kg (dose of MTX) tail vein on 1st): completely suppressed the onset of inflammation for the 28 days of monitoring

Molecule: PEG-Asp44(γ-Tyramine-MTX)-Ac [MTX_G-44]
- Toxicity (death/n) ([1]; once 12.5 mg/kg in terms of MTX, tail vein): 0/3
- Relative tumor volume mean ± SD ([1]; once 12.5 mg/kg in terms of MTX, tail vein, 12.5 mg/kg): 8.2 and 8.2 ± 1.0
- death of toxicity (in words) ([1]; once 25 mg/kg in terms of MTX): one animal died of toxicity
- Toxicity (death/n) [1, 5]: 1/3
- Relative tumor volume mean ± SD [1, 6]: 2.3 and 2.3 ± 1.1
- Toxicity (death/n) [1, 7]: 1/3
- Relative tumor volume mean ± SD [1, 7]: 0.4 ± 0.1
- suppression of tumor growth (in words) [1]: strongly suppress the growth of tumor with a single administration
- dose dependence of tumor growth suppression (in words) [1]: tumor growth is suppressed in a manner dependent on the amount of administration

Source: patent publication US9149540B2, “Polymer conjugate of folic acid or folic acid derivative” (Nippon Kayaku Kabushiki Kaisha, priority 2008, dated 2015)
